This note sets out measurements from US20240279240A1, “HETEROCYCLIC DERIVATIVES AS JANUS KINASE INHIBITORS” (CHIESI FARMACEUTICI S.P.A., priority 2021, published 2024).

The target of one assay is JAK 2 (Homo sapiens, UniProt O60674). Description: Biochemical potency on JAK2, TR-FRET LANCE Ultra kinase assay (examples 1-99). To be noted: ATP at Km (0.7 μM), read-out: JAK2 inhibitory activity (pIC50 class) (converted). The method, then:
(§1) The objective of this study was to assess the capability of compounds to inhibit all 4 JAK isoforms activity in a cell-free environment. Assay for JAK 1, JAK 2, JAK 3 and TYK2 were performed by Time-resolved fluorescence resonance energy transfer (TR-FRET) technology. It consists in the interaction of two labelled binding partners detected by the energy transfer from an excited donor to an acceptor dye and measurement of light emission by the acceptor dye. LANCE Ultra kinase assay was used. In presence of JAK 1, JAK 2, JAK 3 and TYK2 kinases and ATP (corresponding to Km), the ULight peptide substrate (LANCE Ulight-JAK-1 (Tyr1023) Peptide, Perkin Elmer, TRF0121) is phosphorylated. It is then captured by Eu-anti-phospho-substrate antibody (LANCE Eu-W1024 Anti-phosphotyrosine (PT66), Perkin Elmer, AD0069), which bring the Eu-chelate donor and ULight acceptor dyes into close proximity. Upon excitation at 320 nm, the Eu-chelate transfers its energy to the ULight dye, resulting in a fluorescent light emission at 665 nm.
(§2) Serial dilutions of compounds in pure DMSO are prepared from 10 mM DMSO stock solutions. Compounds were tested in 384-well plate for 11 consecutive 5-fold dilutions starting from 20 μM highest concentration (20 μM-[…]). 200 nL of compound were transferred from mother plate to test plate by using Mosquito (TTP labtech). Assay was performed in 384-well Perkin Elmer test plate in 20 μL assay volume (kinase reaction) and 40 μL total volume (stopping reagent and antibody detection reagents). In 10 μL of substrate solution (peptide+ATP) 30/50/20/10 nM of peptide and 20/0.7/0.2/12 μM of ATP were added for JAK 1, JAK 2, JAK 3 and TYK2 respectively. 10 μL of enzyme solution was added to kinase reaction at these concentrations: 0.15/0.083/0.025/0.144 ng/μL of JAK 1, JAK 2, JAK 3 and TYK2 respectively. After shaking and 1.5 h of incubation at r.t., 20 μL of Stop (10 μL EDTA) and Detection mixture (10 μL Europium-anti-phospho antibody, final: 0.5 nM) were added. Reading was performed after 1 h of incubation on a EnVision 2104 reader (Perkin Elmer).
(§3) Calculation of IC50 data, curves and QC analysis was performed by using Excel tool and GraphPadPrism software, v9. Briefly, individual concentration-effect curves are generated by plotting the logarithm of the tested concentration of tested compounds (X) vs. corresponding percent inhibition values (Y) using least squares (ordinary) fit. Best fit IC50 values are calculated using Log(inhibitor) vs. normalized response—Variable slope equation, where Y=100/(1+10^((Log IC50−X)*HillSlope)). QC criteria parameters (Z′, S:B, R2, HillSlope) were checked for every IC50 curve. Calculation of IC50 data, curves and QC analysis were made using Excel tools and GraphPadPrism software. QC criteria parameters: Z′≥0.5, Hill Slope range 0.5 to 5, S:B>2.
In general terms: TR-FRET usually uses a lanthanide donor and a delayed reading to cut background.

In the next assay the target is T1, JAK 3 (Homo sapiens, UniProt P52333).
T1 sequence (P52333 1-1124): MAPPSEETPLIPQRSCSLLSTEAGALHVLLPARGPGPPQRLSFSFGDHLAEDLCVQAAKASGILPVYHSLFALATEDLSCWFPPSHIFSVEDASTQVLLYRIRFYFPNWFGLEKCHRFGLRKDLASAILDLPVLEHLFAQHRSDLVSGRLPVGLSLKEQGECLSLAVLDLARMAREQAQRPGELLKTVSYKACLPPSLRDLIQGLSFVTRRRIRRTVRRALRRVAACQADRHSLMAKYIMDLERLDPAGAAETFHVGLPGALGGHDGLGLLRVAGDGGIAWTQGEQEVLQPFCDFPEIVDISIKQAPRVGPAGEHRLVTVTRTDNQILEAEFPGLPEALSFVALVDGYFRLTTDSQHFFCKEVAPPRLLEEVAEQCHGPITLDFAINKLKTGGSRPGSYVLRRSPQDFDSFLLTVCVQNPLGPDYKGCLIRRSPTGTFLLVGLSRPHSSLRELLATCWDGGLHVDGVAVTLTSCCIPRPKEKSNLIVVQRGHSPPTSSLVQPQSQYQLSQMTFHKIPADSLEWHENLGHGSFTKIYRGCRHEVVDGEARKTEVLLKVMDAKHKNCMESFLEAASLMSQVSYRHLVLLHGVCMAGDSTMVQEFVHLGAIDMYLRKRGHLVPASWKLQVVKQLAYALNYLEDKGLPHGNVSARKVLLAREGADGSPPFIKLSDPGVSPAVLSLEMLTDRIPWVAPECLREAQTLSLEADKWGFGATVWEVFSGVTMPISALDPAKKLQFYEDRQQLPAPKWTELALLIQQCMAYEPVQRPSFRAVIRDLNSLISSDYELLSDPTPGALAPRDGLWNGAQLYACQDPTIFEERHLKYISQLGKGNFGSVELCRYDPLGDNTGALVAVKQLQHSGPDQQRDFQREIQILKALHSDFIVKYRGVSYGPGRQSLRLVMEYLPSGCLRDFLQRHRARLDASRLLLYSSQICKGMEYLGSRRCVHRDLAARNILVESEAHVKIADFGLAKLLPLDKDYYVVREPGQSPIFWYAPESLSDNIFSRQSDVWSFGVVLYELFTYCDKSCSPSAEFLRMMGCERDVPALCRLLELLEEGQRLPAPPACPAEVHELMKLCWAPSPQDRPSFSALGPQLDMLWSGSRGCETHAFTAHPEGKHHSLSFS
The assay can be described thus: Biochemical potency on JAK3, TR-FRET LANCE Ultra kinase assay (examples 1-99). To be noted: ATP at Km (0.2 μM), read-out: JAK3 inhibitory activity (pIC50 class) (converted). The method, then: as §1, §2, §3

The target in another assay is TYK2 (Homo sapiens, UniProt P29597). The assay can be described thus: Biochemical potency on Tyk2, TR-FRET LANCE Ultra kinase assay (examples 1-99). The conditions noted are these: ATP at Km (12 μM), read-out: Tyk2 inhibitory activity (pIC50 class) (converted). The method, then: as §1, §2, §3
The target of another assay is JAK 1 (Homo sapiens, UniProt P23458). The assay can be described thus: Biochemical potency on JAK1, TR-FRET LANCE Ultra kinase assay (examples 1-99). The conditions noted are these: ATP at Km (20 μM), read-out: JAK1 inhibitory activity (pIC50 class) (converted). The method, then: as §1, §2, §3
JAK 1, sequence (P23458 whole entry): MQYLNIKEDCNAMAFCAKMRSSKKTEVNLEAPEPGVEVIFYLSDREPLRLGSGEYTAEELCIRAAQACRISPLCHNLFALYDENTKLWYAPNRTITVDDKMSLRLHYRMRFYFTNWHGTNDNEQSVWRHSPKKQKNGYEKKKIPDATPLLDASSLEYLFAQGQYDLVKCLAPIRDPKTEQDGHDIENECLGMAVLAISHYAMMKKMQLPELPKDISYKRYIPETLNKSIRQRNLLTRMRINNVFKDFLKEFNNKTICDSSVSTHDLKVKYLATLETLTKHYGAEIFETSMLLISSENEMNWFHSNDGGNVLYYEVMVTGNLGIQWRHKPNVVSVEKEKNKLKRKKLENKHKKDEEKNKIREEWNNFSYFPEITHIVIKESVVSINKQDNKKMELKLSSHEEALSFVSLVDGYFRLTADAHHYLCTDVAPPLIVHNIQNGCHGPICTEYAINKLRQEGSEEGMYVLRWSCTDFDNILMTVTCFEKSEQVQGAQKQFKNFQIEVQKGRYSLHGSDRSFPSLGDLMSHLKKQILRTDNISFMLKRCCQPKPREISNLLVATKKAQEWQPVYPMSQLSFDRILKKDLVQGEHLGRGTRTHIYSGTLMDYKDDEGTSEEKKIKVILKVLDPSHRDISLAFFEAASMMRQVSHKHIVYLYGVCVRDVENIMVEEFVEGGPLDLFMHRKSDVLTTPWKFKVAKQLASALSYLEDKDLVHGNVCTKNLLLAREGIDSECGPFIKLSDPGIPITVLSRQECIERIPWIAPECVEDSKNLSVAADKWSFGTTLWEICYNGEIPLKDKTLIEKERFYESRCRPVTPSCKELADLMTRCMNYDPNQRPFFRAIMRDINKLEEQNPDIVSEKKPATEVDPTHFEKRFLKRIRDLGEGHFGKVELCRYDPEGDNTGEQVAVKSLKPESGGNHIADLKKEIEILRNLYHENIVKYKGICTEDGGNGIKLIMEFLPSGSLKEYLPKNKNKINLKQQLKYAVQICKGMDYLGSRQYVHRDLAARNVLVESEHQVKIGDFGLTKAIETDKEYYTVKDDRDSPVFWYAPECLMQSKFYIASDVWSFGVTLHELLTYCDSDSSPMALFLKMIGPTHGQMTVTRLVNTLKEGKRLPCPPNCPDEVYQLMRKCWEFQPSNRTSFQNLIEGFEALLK

JAK 2, sequence (O60674 whole entry, canonical isoform): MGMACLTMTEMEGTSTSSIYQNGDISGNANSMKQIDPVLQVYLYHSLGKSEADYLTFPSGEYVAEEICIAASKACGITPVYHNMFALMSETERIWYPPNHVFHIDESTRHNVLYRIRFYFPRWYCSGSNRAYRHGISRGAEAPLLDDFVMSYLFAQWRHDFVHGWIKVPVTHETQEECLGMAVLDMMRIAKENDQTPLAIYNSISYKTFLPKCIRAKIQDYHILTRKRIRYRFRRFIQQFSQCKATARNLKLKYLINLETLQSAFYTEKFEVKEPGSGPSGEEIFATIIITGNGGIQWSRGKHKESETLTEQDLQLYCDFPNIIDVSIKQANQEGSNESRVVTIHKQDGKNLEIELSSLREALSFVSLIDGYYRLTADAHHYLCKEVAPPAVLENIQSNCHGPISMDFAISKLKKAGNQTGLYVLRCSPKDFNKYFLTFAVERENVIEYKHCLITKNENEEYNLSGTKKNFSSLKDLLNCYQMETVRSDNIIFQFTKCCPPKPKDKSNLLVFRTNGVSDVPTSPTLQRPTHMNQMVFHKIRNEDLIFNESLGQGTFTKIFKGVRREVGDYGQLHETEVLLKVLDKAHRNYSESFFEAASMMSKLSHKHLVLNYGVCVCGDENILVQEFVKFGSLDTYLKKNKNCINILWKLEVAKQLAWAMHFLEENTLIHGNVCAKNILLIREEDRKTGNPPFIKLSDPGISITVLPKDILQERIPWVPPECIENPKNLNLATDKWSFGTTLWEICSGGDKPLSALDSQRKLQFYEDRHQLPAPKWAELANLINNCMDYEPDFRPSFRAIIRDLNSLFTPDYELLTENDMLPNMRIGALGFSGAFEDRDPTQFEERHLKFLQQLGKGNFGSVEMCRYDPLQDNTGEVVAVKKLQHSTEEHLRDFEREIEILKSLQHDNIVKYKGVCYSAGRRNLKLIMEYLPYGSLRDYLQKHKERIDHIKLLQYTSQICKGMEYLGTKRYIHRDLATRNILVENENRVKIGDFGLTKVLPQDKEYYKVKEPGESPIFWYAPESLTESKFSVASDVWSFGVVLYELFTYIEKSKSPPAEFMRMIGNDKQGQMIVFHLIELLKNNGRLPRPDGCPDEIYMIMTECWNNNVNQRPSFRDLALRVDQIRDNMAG
TYK2, sequence (P29597 whole entry): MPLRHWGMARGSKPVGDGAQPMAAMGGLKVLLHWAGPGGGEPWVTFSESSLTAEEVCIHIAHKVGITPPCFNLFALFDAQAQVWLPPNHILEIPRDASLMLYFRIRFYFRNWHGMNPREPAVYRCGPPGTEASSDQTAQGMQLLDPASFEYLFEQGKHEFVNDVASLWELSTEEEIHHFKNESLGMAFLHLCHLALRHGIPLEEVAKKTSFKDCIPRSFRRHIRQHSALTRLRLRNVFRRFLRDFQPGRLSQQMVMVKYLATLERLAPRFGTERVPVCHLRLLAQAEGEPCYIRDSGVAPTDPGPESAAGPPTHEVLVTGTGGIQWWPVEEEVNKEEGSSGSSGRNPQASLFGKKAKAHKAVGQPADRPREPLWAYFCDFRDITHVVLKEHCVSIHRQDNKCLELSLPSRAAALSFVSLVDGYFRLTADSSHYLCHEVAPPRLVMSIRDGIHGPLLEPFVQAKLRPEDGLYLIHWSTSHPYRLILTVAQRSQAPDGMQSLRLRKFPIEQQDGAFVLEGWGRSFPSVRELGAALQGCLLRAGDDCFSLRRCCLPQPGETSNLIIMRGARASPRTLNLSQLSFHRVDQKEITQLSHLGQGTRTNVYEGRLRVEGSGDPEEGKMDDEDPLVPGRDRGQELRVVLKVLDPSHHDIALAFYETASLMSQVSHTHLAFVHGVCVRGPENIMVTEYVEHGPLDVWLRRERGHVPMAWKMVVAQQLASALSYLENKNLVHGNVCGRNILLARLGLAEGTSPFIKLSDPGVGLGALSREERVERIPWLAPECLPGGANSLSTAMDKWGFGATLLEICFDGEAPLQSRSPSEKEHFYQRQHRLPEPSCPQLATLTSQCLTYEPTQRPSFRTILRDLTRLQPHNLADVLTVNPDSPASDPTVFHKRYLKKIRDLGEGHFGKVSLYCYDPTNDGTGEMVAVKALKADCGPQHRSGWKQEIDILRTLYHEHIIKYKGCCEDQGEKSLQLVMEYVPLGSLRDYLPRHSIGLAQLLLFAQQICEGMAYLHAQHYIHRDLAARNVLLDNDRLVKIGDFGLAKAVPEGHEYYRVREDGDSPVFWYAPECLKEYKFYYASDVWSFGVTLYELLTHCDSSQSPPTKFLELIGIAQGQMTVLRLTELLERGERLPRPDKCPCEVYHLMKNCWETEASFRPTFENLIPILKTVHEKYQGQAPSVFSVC

For the compound `COc1ccc(S(=O)(=O)NCCO)cc1-n1nc(C)c2cnc(-c3cnn4cccnc34)cc21` [Example 15, N-(2-hydroxyethyl)-4-methoxy-3-(3-methyl-6-(pyrazolo[1,5-a]pyrimidin-3-yl)-1H-pyrazolo[4,3-c]pyridin-1-yl)benzenesulfonamide], the IC50 at JAK 2 is at most 5.01 nM; on JAK 3, 5.01 to 50.1 nM; at TYK2, above 50.1 nM; on JAK 1 it was 5.01 to 50.1 nM.
With `COc1ccc(S(=O)(=O)NCCCN2CCN(C)CC2)cc1-n1nc(C)c2cnc(-c3cnn4cccnc34)cc21` [Example 16, 4-methoxy-3-(3-methyl-6-(pyrazolo[1,5-a]pyrimidin-3-yl)-1H-pyrazolo[4,3-c]pyridin-1-yl)-N-(3-(4-methylpiperazin-1-yl)propyl)benzenesulfonamide], the IC50 was 5.01 to 50.1 nM on JAK 2, above 50.1 nM on JAK 3, above 50.1 nM on TYK2 and above 50.1 nM on JAK 1.
For the compound `COc1ccc(S(=O)(=O)NCC2CN(C)C2)cc1-n1nc(C)c2cnc(-c3cnn4cccnc34)cc21` [Example 17, 4-methoxy-3-(3-methyl-6-(pyrazolo[1,5-a]pyrimidin-3-yl)-1H-pyrazolo[4,3-c]pyridin-1-yl)-N-((1-methylazetidin-3-yl)methyl)benzenesulfonamide], the IC50 at JAK 2 was 5.01 to 50.1 nM; on JAK 3, above 50.1 nM; on TYK2, above 50.1 nM; at JAK 1 it was 5.01 to 50.1 nM.
For the compound `COc1ccc(S(=O)(=O)NCCN2CCN(C)CC2)cc1-n1nc(C)c2cnc(-c3cnn4cccnc34)cc21` [Example 18, 4-methoxy-3-(3-methyl-6-(pyrazolo[1,5-a]pyrimidin-3-yl)-1H-pyrazolo[4,3-c]pyridin-1-yl)-N-(2-(4-methylpiperazin-1-yl)ethyl)benzenesulfonamide], the IC50 on JAK 2 was 5.01 to 50.1 nM; on JAK 3 it was above 50.1 nM; at TYK2, above 50.1 nM; at JAK 1, 5.01 to 50.1 nM.
`COc1ccc(S(=O)(=O)NCCN2CCOCC2)cc1-n1nc(C)c2cnc(-c3cnn4cccnc34)cc21` [Example 19, 4-methoxy-3-(3-methyl-6-(pyrazolo[1,5-a]pyrimidin-3-yl)-1H-pyrazolo[4,3-c]pyridin-1-yl)-N-(2-morpholinoethyl)benzenesulfonamide]: the IC50 on JAK 2 is 5.01 to 50.1 nM; at JAK 3 it was above 50.1 nM; on TYK2, above 50.1 nM; at JAK 1, 5.01 to 50.1 nM.
As to `COCCS(=O)(=O)c1ccc(OC(F)F)c(-n2nc(C)c3cnc(-c4cnn5cccnc45)cc32)c1` [Example 20, 1-(2-(difluoromethoxy)-5-((2-methoxyethyl)sulfonyl)phenyl)-3-methyl-6-(pyrazolo[1,5-a]pyrimidin-3-yl)-1H-pyrazolo[4,3-c]pyridine], the IC50 on JAK 2 is at most 5.01 nM; at JAK 3, at most 5.01 nM; on TYK2, 5.01 to 50.1 nM; on JAK 1, 5.01 to 50.1 nM.
Consider `Cc1nn(-c2cc(S(=O)(=O)CCCN(C)C)ccc2OC(F)F)c2cc(-c3cnn4cccnc34)ncc12` [Example 21, 3-((4-(difluoromethoxy)-3-(3-methyl-6-(pyrazolo[1,5-a]pyrimidin-3-yl)-1H-pyrazolo[4,3-c]pyridin-1-yl)phenyl)sulfonyl)-N,N-dimethylpropan-1-amine], for which the IC50 is 5.01 to 50.1 nM at JAK 2, 5.01 to 50.1 nM on JAK 3, above 50.1 nM on TYK2 and 5.01 to 50.1 nM at JAK 1.
For the compound `Cc1nn(-c2cc(S(=O)(=O)CCO)ccc2OC(F)F)c2cc(-c3cnn4cccnc34)ncc12` [Example 22, 2-((4-(difluoromethoxy)-3-(3-methyl-6-(pyrazolo[1,5-a]pyrimidin-3-yl)-1H-pyrazolo[4,3-c]pyridin-1-yl)phenyl)sulfonyl)ethan-1-ol], the IC50 on JAK 2 was at most 5.01 nM; at JAK 3, at most 5.01 nM; on TYK2, 5.01 to 50.1 nM; at JAK 1, 5.01 to 50.1 nM.
